Consider twelve compounds from ChEMBL document CHEMBL4387786, “Mallopenins A-E, Antibacterial Phenolic Derivatives from the Fruits of Mallotus philippensis” (2019).

Values after ≈ are worked out from the molar mass of the structure shown.

One test has as its system Streptococcus mutans. Put plainly: Antibacterial activity against Streptococcus mutans by CLSI guideline based broth microdilution method. The test is classed as functional.
A further test deals with Bacillus cereus. Put plainly: Antibacterial activity against Bacillus cereus by CLSI guideline based broth microdilution method. The test is classed as functional.
For test [1], the system named is Staphylococcus epidermidis. Put plainly: Antibacterial activity against Staphylococcus epidermidis by CLSI guideline based broth microdilution method. The test is classed as functional. (Broth dilution looks for growth in wells or tubes with falling amounts of substance.)
In the next test the test system is Salmonella typhimurium. Put plainly: Antibacterial activity against Salmonella typhimurium by CLSI guideline based broth microdilution method. The test is classed as functional, Salmonella enterica subsp. enterica serovar Typhimurium.
Another test has as its system Micrococcus luteus. Put plainly: Antibacterial activity against Micrococcus luteus by CLSI guideline based broth microdilution method. It is filed as functional.
For a further test, the system named is Staphylococcus aureus. Put plainly: Antibacterial activity against Staphylococcus aureus by CLSI guideline based broth microdilution method. It is filed as functional.
The test system of a further test is Pseudomonas aeruginosa. Put plainly: Antibacterial activity against Pseudomonas aeruginosa by CLSI guideline based broth microdilution method. The test is classed as functional.
In the next test the test system is Shigella flexneri. Put plainly: Antibacterial activity against Shigella flexneri by CLSI guideline based broth microdilution method. It is filed as functional.
The subject of a further test is Escherichia coli. Put plainly: Antibacterial activity against Escherichia coli by CLSI guideline based broth microdilution method. The test is classed as functional.

For the compound `CC1(C)C=Cc2c(O)c3c(c(CC(=O)O)c2O1)O[C@H](c1ccccc1)CC3=O`, the MIC (against Streptococcus mutans; with Bacillus cereus; in [1]; with Salmonella typhimurium (Salmonella enterica); in the test with Micrococcus luteus; with Staphylococcus aureus) was more than 100 µM in each case. Besides, the minimal inhibitory concentration (MIC) in the test on Pseudomonas aeruginosa, in the test on Shigella flexneri and in the test with Escherichia coli was more than 100 µM each time.
With `CN[C@H](CC(C)C)C(=O)N[C@H]1C(=O)N[C@@H](CC(N)=O)C(=O)N[C@H]2C(=O)N[C@H]3C(=O)N[C@H](C(=O)N[C@H](C(=O)O)c4cc(O)cc(O)c4-c4cc3ccc4O)[C@H](O)c3ccc(c(Cl)c3)Oc3cc2cc(c3O[C@@H]2O[C@H](CO)[C@@H](O)[C@H](O)[C@H]2O[C@H]2C[C@](C)(N)[C@H](O)[C@H](C)O2)Oc2ccc(cc2Cl)[C@H]1O` [VANCOMYCIN], the MIC in the test with Streptococcus mutans came to 0.2 µM (≈ 0.29 µg/mL); with Bacillus cereus, 0.1 µM (≈ 0.145 µg/mL); in test [1], 0.2 µM (≈ 0.29 µg/mL); against Micrococcus luteus, 0.2 µM (≈ 0.29 µg/mL); in the test on Staphylococcus aureus it was 0.2 µM (≈ 0.29 µg/mL).
For the compound `CC(C)=CCc1c(O)c(C(=O)/C=C/c2ccccc2)c2c(c1O)[C@H]1[C@@H]3[C@@H](CC[C@]3(C)O2)C1(C)C`, the MIC (with Streptococcus mutans; in the test with Bacillus cereus; in test [1]; in the test with Salmonella typhimurium (Salmonella enterica); against Micrococcus luteus; against Staphylococcus aureus) was more than 100 µM in each case. Moreover, the MIC in the test with Pseudomonas aeruginosa, against Shigella flexneri and against Escherichia coli was more than 100 µM each time.
`CC(=O)c1c(O)c(C)c(O)c(Cc2c(O)c3c(c(C(=O)/C=C/c4ccc(O)cc4)c2O)OC(C)(C)C=C3)c1O`: the MIC was 3.8 µM (≈ 2.02 µg/mL) against Streptococcus mutans; 3.8 µM (≈ 2.02 µg/mL) in the test with Bacillus cereus; more than 100 µM in [1]; more than 100 µM against Salmonella typhimurium (Salmonella enterica); 30.1 µM (≈ 16 µg/mL) with Micrococcus luteus; 15 µM (≈ 7.99 µg/mL) against Staphylococcus aureus. The figures for the MIC in the test with Pseudomonas aeruginosa, with Shigella flexneri and with Escherichia coli were more than 100 µM, more than 100 µM and 7.5 µM (≈ 3.99 µg/mL), respectively.
As for `CC(=O)c1c(O)c(C)c(O)c(Cc2c3c(c(O)c4c2OC(c2ccc(O)cc2)CC4=O)C=CC(C)(C)O3)c1O` (centres undefined), the MIC in the test with Streptococcus mutans was more than 100 µM; against Bacillus cereus it was 30.1 µM (≈ 16 µg/mL); in test [1], more than 100 µM; against Salmonella typhimurium (Salmonella enterica), more than 100 µM; with Micrococcus luteus it was more than 100 µM; against Staphylococcus aureus it was more than 100 µM. The MIC against Pseudomonas aeruginosa, in the test on Shigella flexneri and against Escherichia coli was more than 100 µM each time.
As for `CC(=O)c1c(O)c(C)c(O)c(Cc2c(O)c(CC=C(C)C)c(O)c3c2OC(c2ccccc2)CC3=O)c1O` (centres undefined), the MIC is 30.9 µM (≈ 16 µg/mL) in the test on Streptococcus mutans; 30.9 µM (≈ 16 µg/mL) against Bacillus cereus; more than 100 µM in [1]; more than 100 µM against Salmonella typhimurium (Salmonella enterica); 30.9 µM (≈ 16 µg/mL) against Micrococcus luteus; 61.8 µM (≈ 32 µg/mL) against Staphylococcus aureus. Further, the figures for the MIC in the test with Pseudomonas aeruginosa, in the test on Shigella flexneri and against Escherichia coli were more than 100 µM, more than 100 µM and 30.9 µM (≈ 16 µg/mL), respectively.
As for `CC(=O)c1c(O)c(C)c(O)c(Cc2c(O)c3c(c(C(=O)/C=C/c4ccccc4)c2O)OC(C)(C)C=C3)c1O` [ROTTLERIN], the MIC against Streptococcus mutans is 15.5 µM (≈ 8.01 µg/mL); with Bacillus cereus, 15.5 µM (≈ 8.01 µg/mL); in test [1] it was more than 100 µM; in the test on Salmonella typhimurium (Salmonella enterica) it was more than 100 µM; in the test on Micrococcus luteus, 15.5 µM (≈ 8.01 µg/mL); against Staphylococcus aureus, 15.5 µM (≈ 8.01 µg/mL). The MIC in the test with Pseudomonas aeruginosa was more than 100 µM; against Shigella flexneri, more than 100 µM; in the test with Escherichia coli, 15.5 µM (≈ 8.01 µg/mL).
With `CC(=O)c1c(O)c(C)c(O)c(Cc2c3c(c(O)c4c2OC(c2ccccc2)CC4=O)C=CC(C)(C)O3)c1O` (centres undefined), the MIC (against Streptococcus mutans; against Bacillus cereus; in test [1]; in the test on Salmonella typhimurium (Salmonella enterica); with Micrococcus luteus; with Staphylococcus aureus) was more than 100 µM throughout. In addition, the MIC in the test on Pseudomonas aeruginosa, with Shigella flexneri and in the test on Escherichia coli was more than 100 µM in each case.
Regarding `COCc1c2c(c(O)c3c1O[C@H](c1ccccc1)CC3=O)C=CC(C)(C)O2`, the MIC (in the test on Streptococcus mutans; against Bacillus cereus; in [1]; in the test with Salmonella typhimurium (Salmonella enterica); in the test with Micrococcus luteus; against Staphylococcus aureus) was more than 100 µM each time. For the same compound, the MIC with Pseudomonas aeruginosa, against Shigella flexneri and in the test on Escherichia coli was more than 100 µM each time.
Regarding `CC(C)=CCC/C(C)=C/Cc1c(O)c2c(c(C(=O)/C=C/c3ccccc3)c1O)OC(C)(C)C=C2`, the MIC (against Streptococcus mutans; in the test on Bacillus cereus; in test [1]; with Salmonella typhimurium (Salmonella enterica); in the test with Micrococcus luteus; in the test on Staphylococcus aureus) was more than 100 µM each time. Besides, the MIC in the test on Pseudomonas aeruginosa, in the test on Shigella flexneri and against Escherichia coli was more than 100 µM throughout.
`CC(=O)c1c(O)c(CC=C(C)C)c2c3c1OC1(C)CCC(C3C1)C(C)(C)O2` (racemic): the minimal inhibitory concentration (MIC) (with Streptococcus mutans; against Bacillus cereus; in [1]; with Salmonella typhimurium (Salmonella enterica); in the test with Micrococcus luteus; in the test on Staphylococcus aureus) was more than 100 µM in each case. Moreover, the MIC against Pseudomonas aeruginosa, in the test with Shigella flexneri and with Escherichia coli was more than 100 µM in each case.
As to GENTAMICIN, the minimum inhibitory concentration (MIC) with Salmonella typhimurium (Salmonella enterica subsp. enterica serovar Typhimurium) came to 1 µM; in the test with Pseudomonas aeruginosa, 1 µM; against Shigella flexneri it was 1 µM; against Escherichia coli it was 0.5 µM.

The term MIC denotes the least concentration at which growth counts as inhibited. A lower MIC goes with greater potency.
